Source: ChEMBL document CHEMBL3044945, “Synthesis of 1,3,5-trisubstituted pyrazoline nucleus containing compounds and screening for antimicrobial activity” (2012)
≈ marks a conversion by molar mass, not a printed value.

How the values were obtained:
Assay type in all cases: functional
Penicillium chrysogenum [1] = test: Antifungal activity against Penicillium chrysogenum MTCC 161 at 1250 ug/ml after 48 hr by cup-plate method; conditions: MTCC 161, 48 h, read-out: DIZ
Penicillium chrysogenum [2] = test: Antifungal activity against Penicillium chrysogenum MTCC 161 after 24 to 48 hr by tube dilution method
Staphylococcus aureus [3] = test: Antibacterial activity against Staphylococcus aureus MTCC 1430 at 1000 ug/ml after 48 hr by cup-plate method; conditions: MTCC 1430, 48 h, read-out: DIZ
Bacillus subtilis [4] = test: Antibacterial activity against Bacillus subtilis MTCC 441 at 1000 ug/ml after 48 hr by cup-plate method; conditions: MTCC 441, 48 h, read-out: DIZ
Bacillus pumilus [5] = test: Antibacterial activity against Bacillus pumilus MTCC 1456 at 1000 ug/ml after 48 hr by cup-plate method; conditions: MTCC 1456, 48 h, read-out: DIZ
Escherichia coli [6] = test: Antibacterial activity against Escherichia coli MTCC 1573 at 100 ug/ml after 48 hr by cup-plate method; conditions: MTCC 1573, 48 h, read-out: DIZ
Bacillus subtilis [7] = test: Antibacterial activity against Bacillus subtilis MTCC 441 at 100 ug/ml after 48 hr by cup-plate method; conditions: MTCC 441, 48 h, read-out: DIZ
Bacillus pumilus [8] = test: Antibacterial activity against Bacillus pumilus MTCC 1456 at 250 ug/ml after 48 hr by cup-plate method; conditions: MTCC 1456, 48 h, read-out: DIZ
Bacillus subtilis [9] = test: Antibacterial activity against Bacillus subtilis MTCC 441 at 250 ug/ml after 48 hr by cup-plate method; conditions: MTCC 441, 48 h, read-out: DIZ
Micrococcus luteus [10] = test: Antibacterial activity against Micrococcus luteus MTCC 1538 after 24 to 48 hr by tube dilution method
Micrococcus luteus [11] = test: Antibacterial activity against Micrococcus luteus MTCC 1538 at 1250 ug/ml after 48 hr by cup-plate method; conditions: MTCC 1538, 48 h, read-out: DIZ
Bacillus subtilis [12] = test: Antibacterial activity against Bacillus subtilis MTCC 441 at 1250 ug/ml after 48 hr by cup-plate method; conditions: MTCC 441, 48 h, read-out: DIZ
Bacillus pumilus [13] = test: Antibacterial activity against Bacillus pumilus MTCC 1456 at 750 ug/ml after 48 hr by cup-plate method; conditions: MTCC 1456, 48 h, read-out: DIZ
Pseudomonas aeruginosa = test: Antibacterial activity against Pseudomonas aeruginosa MTCC 424 at 100 ug/ml after 48 hr by cup-plate method; conditions: MTCC 424, 48 h, read-out: DIZ
Pseudomonas fluorescens [14] = test: Antibacterial activity against Pseudomonas fluorescens MTCC 2421 at 1000 ug/ml after 48 hr by cup-plate method; conditions: MTCC 2421, 48 h, read-out: DIZ
Bacillus subtilis [15] = test: Antibacterial activity against Bacillus subtilis MTCC 441 after 24 to 48 hr by tube dilution method
Pseudomonas fluorescens [16] = test: Antibacterial activity against Pseudomonas fluorescens MTCC 2421 at 100 ug/ml after 48 hr by cup-plate method; conditions: MTCC 2421, 48 h, read-out: DIZ
Bacillus subtilis [17] = test: Antibacterial activity against Bacillus subtilis MTCC 441 at 750 ug/ml after 48 hr by cup-plate method; conditions: MTCC 441, 48 h, read-out: DIZ
Penicillium chrysogenum [18] = test: Antifungal activity against Penicillium chrysogenum MTCC 161 at 750 ug/ml after 48 hr by cup-plate method; conditions: MTCC 161, 48 h, read-out: DIZ
Aspergillus niger = test: Antifungal activity against Aspergillus niger MTCC 2546 at 100 ug/ml after 48 hr by cup-plate method; conditions: MTCC 2546, 48 h, read-out: DIZ
Bacillus pumilus [19] = test: Antibacterial activity against Bacillus pumilus MTCC 1456 at 1250 ug/ml after 48 hr by cup-plate method; conditions: MTCC 1456, 48 h, read-out: DIZ
Bacillus pumilus [20] = test: Antibacterial activity against Bacillus pumilus MTCC 1456 at 500 ug/ml after 48 hr by cup-plate method; conditions: MTCC 1456, 48 h, read-out: DIZ
Escherichia coli [21] = test: Antibacterial activity against Escherichia coli MTCC 1573 at 750 ug/ml after 48 hr by cup-plate method; conditions: MTCC 1573, 48 h, read-out: DIZ
Bacillus subtilis [22] = test: Antibacterial activity against Bacillus subtilis MTCC 441 at 500 ug/ml after 48 hr by cup-plate method; conditions: MTCC 441, 48 h, read-out: DIZ
Escherichia coli [23] = test: Antibacterial activity against Escherichia coli MTCC 1573 at 500 ug/ml after 48 hr by cup-plate method; conditions: MTCC 1573, 48 h, read-out: DIZ
Micrococcus luteus [24] = test: Antibacterial activity against Micrococcus luteus MTCC 1538 at 1000 ug/ml after 48 hr by cup-plate method; conditions: MTCC 1538, 48 h, read-out: DIZ
Staphylococcus aureus [25] = test: Antibacterial activity against Staphylococcus aureus MTCC 1430 at 1250 ug/ml after 48 hr by cup-plate method; conditions: MTCC 1430, 48 h, read-out: DIZ
Escherichia coli [26] = test: Antibacterial activity against Escherichia coli MTCC 1573 at 1000 ug/ml after 48 hr by cup-plate method; conditions: MTCC 1573, 48 h, read-out: DIZ

Question: What does the source list for `NC(=O)N1N=C(c2cccc3ccccc23)CC1c1ccc([N+](=O)[O-])cc1` (stereo not drawn)?
Answer: zone of inhibition at 1250 µg/mL (Penicillium chrysogenum [1]): 13 mm; MIC (Penicillium chrysogenum [2]): 50 µg/mL (≈ 139 µM); zone of inhibition at 1000 µg/mL (Staphylococcus aureus [3]): 12 mm; zone of inhibition at 1000 µg/mL (Bacillus subtilis [4]): 15 mm; zone of inhibition at 1000 µg/mL (Bacillus pumilus [5]): 11 mm; zone of inhibition at 100 µg/mL (Escherichia coli [6]): 9 mm; zone of inhibition at 100 µg/mL (Bacillus subtilis [7]): 10 mm; zone of inhibition at 250 µg/mL (Bacillus pumilus [8]): 8 mm; zone of inhibition at 250 µg/mL (Bacillus subtilis [9]): 12 mm; MIC (Micrococcus luteus [10]): 30 µg/mL (≈ 83.2 µM); zone of inhibition at 1250 µg/mL (Micrococcus luteus [11]): 11 mm; zone of inhibition at 1250 µg/mL (Bacillus subtilis [12]): 16 mm; zone of inhibition at 750 µg/mL (Bacillus pumilus [13]): 10 mm; zone of inhibition at 100 µg/mL (Pseudomonas aeruginosa): 9 mm; zone of inhibition at 1000 µg/mL (Pseudomonas fluorescens [14]): 12 mm; MIC (Bacillus subtilis [15]): 15 µg/mL (≈ 41.6 µM); zone of inhibition at 100 µg/mL (Pseudomonas fluorescens [16]): 8 mm; zone of inhibition at 750 µg/mL (Bacillus subtilis [17]): 14 mm; zone of inhibition at 750 µg/mL (Penicillium chrysogenum [18]): 11 mm; zone of inhibition at 100 µg/mL (Aspergillus niger): 10 mm; zone of inhibition at 1250 µg/mL (Bacillus pumilus [19]): 12 mm; zone of inhibition at 500 µg/mL (Bacillus pumilus [20]): 9 mm; zone of inhibition at 750 µg/mL (Escherichia coli [21]): 12 mm; zone of inhibition at 500 µg/mL (Bacillus subtilis [22]): 13 mm; zone of inhibition at 500 µg/mL (Escherichia coli [23]): 11 mm; zone of inhibition at 1000 µg/mL (Micrococcus luteus [24]): 10 mm; zone of inhibition at 1250 µg/mL (Staphylococcus aureus [25]): 14 mm; zone of inhibition at 1000 µg/mL (Escherichia coli [26]): 13 mm
